Measurements from patent US20260027102A1, “QUINOLYLNITRONE DERIVATIVES FOR USE IN THE PREVENTION AND/OR TREATMENT OF HEARING LOSS” (CONSEJO SUPERIOR DE INVESTIGACIONES CIENTÍFICAS (CSIC), priority 2022, published 2026).

Columns and labels:
[1] = system: HEI-OC1 mouse auditory cells; assay: XTT cell viability assay in HEI-OC1 auditory cells with or without H2O2; assay type: cell-based
Experimental: QN23 nitrone was tested in cell cultures of HEI-OC1 mouse auditory cells derived from the Immortomouse™ postnatal organ of Corti following protocols published by the group (Cervantes et al., J Clin Med. 2019 Sep. 14; 8 (9): 1464). HEI-OC1 cells were cultured in DMEM medium supplemented with 10% fetal bovine serum (Gibco), without antibiotics.
Cells were treated with different doses of QN23 (10-50-100-150-200 μM) and with or without 1.2 mM H2O2. Cell viability was studied by XTT assay. Absorbance measurements at 450 and 660 nm were taken with the VERSAmax plate reader at 4 h, 6 h and 23 h after addition of XTT reagents. Viability results were calculated following the formula: Specific absorbance=[Abs450 nm (test)−Abs450 nm (blank)]−Abs660 nm (test). The wells without cells in the respective treatments were used as blanks. Data are represented as mean±SEM, considering the untreated control as 100% viability. Results are from 3 independent experiments and 7 wells/condition/experiment for QN23 nitrone without H2O2 treatment (A-C) or with treatment (D-E). Statistical significance was calculated by Student's test: *p<0.05; **p<0.01; ***p<0.001 in comparison vs. untreated control with QN23. […] After the exposure to H2O2, the cell viability was reduced about 50% due to the cell death associated to the oxidative damage caused by H2O2.
The inventors also compared the effect of QN23 with N-acetylcysteine (NAC). To that end, QN23 nitrone was dissolved in absolute EtOH≥99.5% (#107017; Merck) and tested in vitro in a dose range of 10-200 μM. Cells were treated with increasing doses of H2O2 (1-1.4 mM; Merck).
N-acetylcysteine (NAC) (0.5 mM; Sigma) was used as a reference antioxidant treatment. NAC is a prodrug of L-cysteine, itself a precursor of the biological antioxidant glutathione, among other intracellular actions (Ezerina et al., Cell Chem Biol. 2018 Apr. 19; 25 (4): 447-459.e4). Cells were treated with increasing doses of H2O2 (0.8-1.6 mM).
In both cases, survival curves were performed using the CyQUANT™ XTT cell viability assay (#X12223; Invitrogen) after 2 hours of the administration of QN23 or NAC.
Phenyl N-t-butylnitrone≥98% C6H5CH═N(O)C(CH3)3, PBN) (Sigma-Aldrich, catalogue number B7263) was dissolved as indicated by the manufacturer in Dimethyl sulfoxide (DMSO). DMSO was used as a solvent and had no detectable effects at the dose used (up to 0.1%). A solution 50 uM was prepared to determine the protective effect.
Cell culture, treatments with PBN and XTT assays were performed as already reported for QN23 in sections above.

[2] = system: C57BL/6JCrl mice; assay: Noise-induced hearing loss in mice, auditory brainstem response (ABR) thresholds; assay type: in vivo; details: 24 h after noise exposure (105 dB, 30 min); QN23 2 mg/kg every 12 h intraperitoneally for 3 days, started 1 h before noise; vs vehicle; click and pure tones 4-32 kHz
Experimental: The experiments were carried out in C57BL/6JCrl mice, male or female, aged 1.5 months at the beginning of the study.
Noise exposure was performed inside a reverberation chamber. The animals were exposed to 105 dB SL for 30 minutes (Sanz L, Murillo-Cuesta S, Cobo P, Cediel-Algovia R, Contreras J, Rivera T, Varela-Nieto I, Avendaño C. Swept-sine noise-induced damage as a hearing loss model for preclinical assays. Front Aging Neurosci. 2015 Feb. 16; 7:7).
Auditory function was assessed by recording auditory brainstem evoked potentials (ABR) at baseline and after noise exposure (1 day, 14 days and 28 days after exposure), according to protocol described in (Murillo-Cuesta S, Contreras J, Zurita E, Cediel R, Cantero M, Varela-Nieto I, Montoliu L. Melanin precursors prevent premature age-related and noise-induced hearing loss in albino mice. Pigment Cell Melanoma Res. 2010 February; 23 (1): 72-83. doi: 10.1111/j.1755-148X.2009.00646.x. Epub 2009 Oct. 19).
The nitrone QN23 was prepared as described in WO2020/074666. The solution for its administration was always performed at the time of use by dissolving it under vigorous stirring in a mixture of ethanol, polyethylene glycol (PEG400, Sigma) and saline (1:200:60, V/V), until a stock solution of concentration 3.6 mg/ml was obtained. […]

`CC(=O)N[C@@H](CS)C(=O)O` [NAC, N-acetylcysteine, reference compound] was tested, and the “Protective effect on cell viability at increasing doses of H2O2” value ([1]; 0.5 mM NAC, H2O2 0.8-1.6 mM, 2 h) was “effectively protected from H2O2-induced oxidative damage and cell death at the highest doses tested”.
For `CC(C)(C)[N+]([O-])=Cc1ccccc1` [PBN, Phenyl N-t-butylnitrone, reference compound], the “Protective effect on cell viability at increasing doses of H2O2” value ([1]; 50 μM PBN, without or with increasing doses of H2O2, 2 h, XTT read at 4 and 6 h, 1 experiment) was “no protection was observed when H2O2 doses were higher than 0.5 mM”.
For `COc1ccc2nc(Cl)c(/C=[N+](\[O-])C(C)(C)C)cc2c1` [QN23, (Z)—N-tert-butyl-1-(2-chloro-6-methoxyquinolin-3-yl)methanimine oxide], the “Cell viability at low H2O2 concentration (early stages of cell deterioration)” value ([1]; 50 μM QN23, 0.8 mM H2O2, 2 h) was “enhancement of cell viability even at concentrations as low as 0.8 mM H2O2”, the “Protective effect on cell viability at increasing doses of H2O2” value ([1]; 50 μM QN23, H2O2 0.8-1.6 mM, 2 h) was “cell viability superior at all H2O2 concentrations tested” and the “Toxicity to cells (cell viability without H2O2)” value ([1]; QN23 10-200 μM for 2 h, without H2O2, XTT read at 4, 6 and 23 h) was “not toxic to the cells”. For the same compound, the “Cell viability after exposure to H2O2” value ([1]; QN23 10-50-100-150-200 μM with 1.2 mM H2O2 for 2 h, vs non-treated control group) was “significantly increased cell viability at all the doses tested” and the “Auditory Brainstem Response thresholds after noise exposure” value [2] was “significantly lower thresholds than those receiving vehicle”.
